Data published in patent US20240122909A1, “TREATMENTS OF HEREDITARY ANGIOEDEMA” (KALVISTA PHARMACEUTICALS LIMITED, priority 2021, published 2024).

How the values were obtained:
Format in all cases: in vivo, human
[1] = Phase 2 study Part 2, efficacy in on-demand treatment of HAE attacks
Procedure: In Part 2, the subjects were randomized 1:1 to 2 treatment sequences. This part of the study was conducted away from the clinic or hospital. In Sequence 1 (study arm 1) subjects received a single dose of 600 mg of the compound to treat the first eligible HAE attack. Following resolution of this attack, subjects received a single dose of placebo to treat the second eligible HAE attack.
In Sequence 2 (study arm 2) subjects received a single dose of placebo to treat the first eligible HAE attack. Following resolution of this attack, subjects received a single dose of 600 mg of the compound to treat the second eligible HAE attack.
Laryngeal or facial attacks were not eligible for treatment. HAE attacks must have been treated within the first hour of onset and before reaching severe on the global attack severity scale. Subjects must also have been able to identify the start of a HAE attack. Upon onset of the eligible HAE attack, subjects notified the dedicated study physician or qualified designee with a description of the HAE attack. The dedicated study physician or qualified designee confirmed eligibility of the HAE attack and agreed to study drug being administered. HAE attacks required documentation, on the Subject Diary, of attack location, attack symptoms, time of onset, attack severity, and time of last substantial meal prior to dosing. Subjects took study drug, as instructed, and completed timed assessments of their HAE attack symptoms for a 48 h period as documented below in Table 3. The dedicated study physician or qualified designee contacted the subject within 24 h of the eligible HAE attack to confirm the subject's safety and wellbeing. Subjects were instructed to contact the dedicated study physician or qualified designee in case of any safety concerns. In the case of hypersensitivity, subjects contacted the dedicated study physician or qualified designee or contact the nearest emergency service. The dedicated study physician or qualified designee was available 24 h/day and 7 days/week to receive subject calls.
Time to use of conventional attack treatment was assessed. The subject diary captured the efficacy endpoints including time to use of conventional attack treatment and HAE attack severity.
Overall HAE attack severity was assessed on a 5-point Likert scale (5LS) scored as none, mild, moderate, severe and very severe.
Change in HAE attack severity was assessed using a 7-point transition question (7TQ), scored as Much better/Better/A little better/No change/A little worse/Worse/Much worse.
The type of HAE attack symptoms (abdominal pain, skin pain and skin swelling) was each assessed on a 100 mm visual analogue scale (VAS) anchored at 0 (none) and 100 (very severe).
The primary endpoint, time to use of conventional attack treatment, was analyzed using a generalization of Gehan's test proposed by Feingold and Gillespie (1996) (Crossover trials with censored data. Statistics in Medicine 1996; 15(10): 953-967) to reflect the repeat measures on each subject. Subjects were treated as censored if no worsening occurs within 12 h of study drug.
The proportion of HAE attacks that worsen by one level or more on the 5LS or that require conventional attack treatment within 12 h of study drug was analyzed using Prescott's test (1981) (The comparison of success rates in cross-over trials in the presence of an order effect. Applied Statistics 1981; 30: 9-15) to compare the treatment arms.
A similar approach to that used for the primary endpoint was followed for the analysis of the time between study drug and HAE attack worsening by one level or more on the 5LS or use of conventional attack treatment, whichever comes first within 12 h. […]

[2] = Phase 2 study, safety (drug-related TEAEs)
Description: Safety Variables: • AEs, including serious adverse events (SAEs). • Laboratory test results (clinical chemistry, hematology, coagulation, and urinalysis). • Vital signs (SBP, DBP, PR, RR, body temperature). • Physical examination findings. • ECG results. • Pregnancy test (female subjects of child-bearing potential).
AEs were coded using the Medical Dictionary for Regulatory Activities (MedDRA) dictionary (v21.0 or higher) and classified by preferred term and system organ class (SOC). Listings of treatment-emergent adverse events (TEAEs), serious TEAEs, and TEAEs causing premature discontinuation will be provided by sequence group, and further classified by TEAE severity and relationship to study drug.

[3] = Phase 1 multiple dose study, safety, tolerability and ECG; conditions: total 1800 mg, healthy adults
Procedure: This was a phase 1, double-blind, placebo-controlled, multiple-dose, multiple-cohort study to evaluate safety and tolerability of the compound as well as of the ECG effects of the compound formulated as 100 mg Film Coated Tablets in healthy adult male and female subjects.
Four (4) cohorts were evaluated. Cohorts 1, 2 and 3 included 8 subjects each. Cohort 4 included 18 subjects. Every attempt was made to include an equal number of male and female subjects in each cohort.
During the study, oral doses of 600 mg of the compound as Film Coated Tablets (six 100 mg tablets) or 6 matching placebo tablets were administered once every 8 hours (Cohort 1) every 4 hours (Cohort 2), or every 2 hours (Cohort 3 and 4) to healthy adult male and female subjects up to a total dose of 1800 mg. In Cohorts 1, 2 and 3, 6 subjects received the compound as 100 mg Film Coated Tablets and 2 subjects received the placebo for a total of 8 subjects per cohort. In Cohort 4, 12 subjects received the compound as 100 mg Film Coated Tablets and 6 subjects received the placebo for a total of 18 subjects.
A Holter monitor was attached to each subject in order to continuously record ECGs. The monitor was attached 1 hour before the first dose and remained attached until after the final blood sample collection. The electrodes for the Holter monitor were checked by a member of the clinic staff at appropriate intervals to ensure they were attached.

[4] = 3 x 600 mg every 8, 4 or 2 hours

COCc1nn(Cc2ccc(Cn3ccccc3=O)cc2)cc1C(=O)NCc1nccc(OC)c1F [compound of Formula A, N-[(3-fluoro-4-methoxypyridin-2-yl)methyl]-3-(methoxymethyl)-1-({4-[(2-oxopyridin-1-yl)methyl]phenyl}methyl)pyrazole-4-carboxamide]
PGI-C: Median time to HAE attack being (1) rated a little worse or higher for two consecutive time points, or (2) use of conventional attack treatment, whichever comes first ([1]; 600 mg, N = 53, at 12 hours): >12 h
PGI-C: Median time to HAE attack being rated a little worse or higher for two consecutive time points ([1]; 600 mg, N = 53, at 12 hours): >12 h
PGI-C: Proportion of HAE attacks that were stable or improved ([1]; 600 mg, N = 53, at 12 hours): 48 (90.6) n (%)
PGI-S: Median time to HAE attack resolution (rating of none) ([1]; 600 mg, N = 53, at 12 hours): >12 h
PGI-S: Median time to improvement by one level or more from baseline ([1]; 600 mg, N = 53, at 12 hours): 9.0 h
PGI-S: Proportion of HAE attacks that improved by 1 level or more from baseline ([1]; 600 mg, N = 53, at 12 hours): 30 (56.6) n (%)
PGI-S: Proportion of patients with HAE attack resolution (rating of none) ([1]; 600 mg, N = 53, at 12 hours): 20 (37.7) n (%)
VAS: Proportion of HAE attacks with symptom relief (50% reduction from baseline in composite VAS for three consecutive time points) ([1]; 600 mg, N = 53, at 12 hours): 33 (62.3) n (%)
PGI-C: Median time to HAE attack being (1) rated a little worse or higher for two consecutive time points, or (2) use of conventional attack treatment, whichever comes first ([1]; 600 mg, N = 53, at 24 hours): >24 h
PGI-C: Median time to HAE attack being rated a little worse or higher for two consecutive time points ([1]; 600 mg, N = 53, at 24 hours): >24 h
PGI-C: Proportion of HAE attacks that were stable or improved ([1]; 600 mg, N = 53, at 24 hours): 45 (84.9) n (%)
PGI-S: Median time to HAE attack resolution (rating of none) ([1]; 600 mg, N = 53, at 24 hours): 18.0 h
PGI-S: Median time to improvement by one level or more from baseline ([1]; 600 mg, N = 53, at 24 hours): 9.0 h
PGI-S: Proportion of HAE attacks that improved by 1 level or more from baseline ([1]; 600 mg, N = 53, at 24 hours): 35 (66.0) n (%)
PGI-S: Proportion of patients with HAE attack resolution (rating of none) ([1]; 600 mg, N = 53, at 24 hours): 28 (52.8) n (%)
VAS: Proportion of HAE attacks with symptom relief (50% reduction from baseline in composite VAS for three consecutive time points) ([1]; 600 mg, N = 53, at 24 hours): 39 (73.6) n (%)
severity of the HAE attack, composite VAS score ([1]; 600 mg, over 12 hours and 24 hours): reduced the severity of the HAE attack
attacks improved to “none” on PGI-S (5LS) ([1]; 600 mg, within 12 hours): 37.7%
number of attacks stabilized or improved by PGI-S (5LS) or use of rescue ([1]; 600 mg, within 12 hours): significantly increased the number of attacks stabilized or improved
attacks improved to “none” on PGI-S (5LS) ([1]; 600 mg, within 24 hours): 52.8%
Median time to symptom relief ([1]; abdominal attacks): 1.5 h
attacks that achieved attack resolution within 24 hours ([1]; abdominal attacks): 61.1%
attacks that achieved symptom relief (PGI-C at least “A little better” within 12 hours) ([1]; abdominal attacks): 77.8%
Median time to symptom relief ([1]; peripheral attacks): 2.5 h
attacks that achieved attack resolution within 24 hours ([1]; peripheral attacks): 50.0%
attacks that achieved symptom relief (PGI-C at least “A little better” within 12 hours) ([1]; peripheral attacks): 77.5%
on-treatment drug-related TEAE, number of events ([2]; Part 1, open-label phase): 8
patients with on-treatment drug-related TEAE ([2]; Part 1, open-label phase): 5 patients
on-treatment drug-related TEAE, number of events ([2]; Part 2, crossover phase): 3
patients with on-treatment drug-related TEAE ([2]; Part 2, crossover phase): 5.2%
serious adverse events [3, 4]: No serious adverse events
severity of reported adverse events [3, 4]: mild
effects on ECG parameters ([3]; 3 x 600 mg): No clinically relevant effects on the studied ECG parameters
